The values below come from PubChem BioAssay (NCI).

Test systems include MALME-3M melanoma; SN12C renal; OVCAR-5 ovarian; UACC-62 melanoma; HCT-116 colon; SK-MEL-2 melanoma; DU-145 prostate; OVCAR-3 ovarian; SW-620 colon; M14 melanoma.
Common to all, as to experiment: growth of human tumour cells (NCI), 48 h

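Interpolation was linear, between the two tested concentrations surrounding the appropriate level; five concentrations were tested over 48 hours in 96-well plates. Abbreviation: GI50, concentration required for 50% inhibition of growth. The concentration for full growth arrest is given as TGI.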 Bounds are passed on as bounds.

Take `Clc1ccc(CCNCCNC2(c3cc4ccccc4s3)CCCCC2)cc1Cl`: the TGI with MALME-3M melanoma stood at 3.44 µM; in the assay on SN12C renal, 3.53 µM; with OVCAR-5 ovarian, 3.64 µM; in the assay on UACC-62 melanoma, 3.11 µM; with HCT-116 colon, 3.26 µM; in the assay with SK-MEL-2 melanoma it was 3.2 µM. The TGI in the assay on DU-145 prostate was 3.88 µM; in the assay on OVCAR-3 ovarian it was 2.91 µM; in the assay with SW-620 colon, 3.48 µM; in the assay on M14 melanoma it was 3.97 µM.
As for `O=[N+]([O-])c1cc(-c2ccc([As](=O)(O)O)cc2)ccc1[As](=O)(O)O`, the TGI in the assay with MALME-3M melanoma, in the assay with SN12C renal, in the assay on OVCAR-5 ovarian, in the assay with UACC-62 melanoma, with HCT-116 colon and with SK-MEL-2 melanoma was > 100 µM throughout. For the same compound, the TGI in the assay on DU-145 prostate, in the assay on OVCAR-3 ovarian, in the assay with SW-620 colon and in the assay with M14 melanoma was > 100 µM each time.
As to `Cc1cc2nc3c(C)c4ccccc4c(C)n3c2cc1C`, the TGI in the assay on MALME-3M melanoma was 6.66 µM; in the assay on SN12C renal it was > 10 µM; in the assay on OVCAR-5 ovarian, > 10 µM; in the assay on UACC-62 melanoma it was > 10 µM; in the assay on HCT-116 colon, 3.96 µM; in the assay with SK-MEL-2 melanoma, > 10 µM. In addition, the TGI in the assay with DU-145 prostate was > 10 µM; in the assay with OVCAR-3 ovarian it was 7.8 µM; in the assay on SW-620 colon, > 10 µM; in the assay with M14 melanoma it was > 10 µM.
Regarding `CCc1c[n+]2c(cc1C1=CN3c4ccccc4[C@]45CCN6C/C(=C/CO)[C@H](C[C@H]64)[C@@H]([C@@H]1O)[C@H]35)-c1[nH]c3ccccc3c1CC2`, the TGI in the assay on MALME-3M melanoma, with SN12C renal, with OVCAR-5 ovarian, in the assay with UACC-62 melanoma, with HCT-116 colon and with SK-MEL-2 melanoma was > 50 µM throughout. Moreover, the TGI with DU-145 prostate, with OVCAR-3 ovarian, in the assay with SW-620 colon and in the assay on M14 melanoma was > 50 µM throughout.
Turning to `Cc1ccc(S(=O)(=O)N(CC(O)COc2ccccc2)c2ccccc2Cl)cc1` (centres undefined), the TGI in the assay with MALME-3M melanoma was 29.2 µM; in the assay on SN12C renal it was 29.4 µM; in the assay on OVCAR-5 ovarian it was 51 µM; with UACC-62 melanoma, 21.5 µM; in the assay on HCT-116 colon it was 27.7 µM; in the assay on SK-MEL-2 melanoma it was 27 µM. For the same compound, the TGI in the assay on DU-145 prostate amounted to 57.5 µM; in the assay on OVCAR-3 ovarian, 42.1 µM; in the assay with SW-620 colon, 36.6 µM; in the assay on M14 melanoma, 31 µM.
`CCOC(=O)/C(C(N)=O)=C(/O)c1cnccn1`: the TGI with MALME-3M melanoma, with SN12C renal, in the assay on OVCAR-5 ovarian, in the assay with UACC-62 melanoma, with HCT-116 colon and in the assay on SK-MEL-2 melanoma was > 100 µM throughout. Besides, the TGI in the assay on DU-145 prostate, with OVCAR-3 ovarian, in the assay on SW-620 colon and in the assay with M14 melanoma was > 100 µM in each case.
As for `Nc1ccc(Oc2ccc(C34CC5CC(C3)CC(c3ccc(Oc6ccc(N)c(O)c6)cc3)(C5)C4)cc2)cc1O`, the TGI with MALME-3M melanoma is 6.24 µM; in the assay with SN12C renal, > 21.2 µM; in the assay with OVCAR-5 ovarian, 4.3 µM; in the assay on UACC-62 melanoma, 6.59 µM; with SK-MEL-2 melanoma it was 5.1 µM; in the assay on DU-145 prostate, 3.3 µM. Further, the values for the TGI in the assay on OVCAR-3 ovarian, with SW-620 colon and in the assay with M14 melanoma were 5.05 µM, > 100 µM and 3.05 µM, respectively.
For `Cc1[nH]c(-c2ccccc2)c(O)c1C(=O)OC1CC(C)CCC1C(C)C` (centres undefined), the TGI in the assay on MALME-3M melanoma is 32.9 µM; with SN12C renal, 29.1 µM; with OVCAR-5 ovarian, 27.2 µM; with UACC-62 melanoma it was 30.9 µM; in the assay with HCT-116 colon, 28.1 µM; in the assay on SK-MEL-2 melanoma it was 28.2 µM. In addition, the TGI in the assay with DU-145 prostate is 29.7 µM; in the assay on OVCAR-3 ovarian, 25.2 µM; in the assay with SW-620 colon, 29.2 µM; in the assay on M14 melanoma, 29 µM.
Regarding `O=C(/C=C/c1cc2ccccc2[nH]c1=O)c1ccc(O)cc1`, the GI50 was 10.4 µM in the assay on MALME-3M melanoma; 3.48 µM with SN12C renal; 3.2 µM with OVCAR-5 ovarian; 2.88 µM in the assay with UACC-62 melanoma; 1.94 µM in the assay with HCT-116 colon; 4.13 µM in the assay with SK-MEL-2 melanoma. In addition, the GI50 is 4.02 µM with DU-145 prostate, 3.22 µM in the assay on OVCAR-3 ovarian, 1.89 µM in the assay with SW-620 colon and 2.6 µM with M14 melanoma. Further, the TGI in the assay with MALME-3M melanoma is 33.6 µM; in the assay with SN12C renal, 16 µM; with OVCAR-5 ovarian, 12.8 µM; with UACC-62 melanoma it was 8.73 µM; in the assay with HCT-116 colon, 4.38 µM; with SK-MEL-2 melanoma, 13.6 µM. The TGI in the assay on DU-145 prostate amounted to 14.3 µM; with OVCAR-3 ovarian it was 11.8 µM; with SW-620 colon, 4.45 µM; in the assay with M14 melanoma it was 6.57 µM.
As for `COC(=O)c1cc(NC(=O)Cn2c3ccccc3c3ccccc32)cn1C`, the TGI was > 100 µM with MALME-3M melanoma; > 100 µM with SN12C renal; > 100 µM in the assay on OVCAR-5 ovarian; 73.9 µM with UACC-62 melanoma; > 100 µM with HCT-116 colon; > 100 µM in the assay with SK-MEL-2 melanoma. Also, the TGI in the assay with DU-145 prostate, in the assay with OVCAR-3 ovarian, with SW-620 colon and in the assay on M14 melanoma was > 100 µM each time.
For the compound `O=C1C(Nc2ccc(S(=O)(=O)Nc3cnc4ccccc4n3)cc2)=CC(=Nc2ccc(S(=O)(=O)Nc3cnc4ccccc4n3)cc2)c2ccccc21`, the TGI in the assay on MALME-3M melanoma came to 33.8 µM; in the assay on SN12C renal, 30.6 µM; in the assay with OVCAR-5 ovarian it was 30.8 µM; in the assay with UACC-62 melanoma, 33.6 µM; with HCT-116 colon, 32.9 µM; in the assay on SK-MEL-2 melanoma, 36.3 µM. For the same compound, the TGI in the assay on DU-145 prostate was 30.7 µM; in the assay with OVCAR-3 ovarian it was 47.6 µM; with SW-620 colon, 32.1 µM; in the assay with M14 melanoma, 33.7 µM.
For the compound `Cn1c(SCc2ccc([N+](=O)[O-])cc2)nnc1C12CC3CC(CC(C3)C1)C2`, the TGI in the assay on MALME-3M melanoma, in the assay with SN12C renal, in the assay with OVCAR-5 ovarian, with UACC-62 melanoma, with HCT-116 colon and in the assay with SK-MEL-2 melanoma was > 10 µM throughout. For the same compound, the TGI in the assay on DU-145 prostate, in the assay on OVCAR-3 ovarian, in the assay on SW-620 colon and in the assay with M14 melanoma was > 10 µM throughout.
